Experimental data taken from patent US20050124620A1, “Pharmaceutical compounds” (priority 2002, published 2005).

What follows are compounds tested on THP-1 cells (assay: Inhibition of LPS-induced TNF-α production in THP-1 cells, in vitro assay). Details: Homo sapiens; PMA-treated THP-1 cells, 1 μg/ml LPS, 6 h, TNF-α by ELISA.
Format: cell-based
Procedure: The ability of the compounds of this invention to inhibit the TNF-α release was determined using a rninor modification of the methods described in Rawlins P., et al., “Inhibition of endotoxin-induced TNF-α production in macrophages by 5Z-7-oxo-zeaenol and other fungal resorcyclic acid lactones,” International J. of Immunopharmacology, 21, 799, (1999).
THP-1 cells, human monocytic leukaemic cell line, ECACC) were maintained in culture medium [RPMI 1640 (Invitrogen) and 2 mM L-Glutamine supplemented with 10% foetal bovine serum (Invitrogen)] at approximately 37° C. in humidified 5% CO2 in stationary culture. TBP-1 cells were suspended in culture medium containing 50 ng/ml PMA (SIGMA), seeded into a 96-well tissue culture plate (IWAKI) at 1×10^5 cells/well (100 μl/well) and incubated as described above for approximately 48 h. The medium was then aspirated, the wells washed twice in Phosphate Buffered Saline and 1 μg/ml LPS (SIGMA) in culture medium was added (200 μl/well).
Test compounds were reconstituted in DMSO (SIGMA) and then diluted with the culture medium such that the final DMSO concentration was 0.1%. […] Culture supernatants were collected and the amount of human TNF-α present was determined by ELISA (R&D Systems) performed according to the manufacturer's instructions. […]
In the case of O=C(Nc1ccc2[nH]cc(CCc3ccncc3)c2c1)c1cc(F)cc(N2CCOCC2)c1 [Example 14B, 5-(3-Fluoro-5-(4-morpholino)benzamido)-3-(2-(4-pyridyl)ethyl)indole], the IC50 is reported as 0.53 µM.

The compounds below were run against α p38 (Homo sapiens, UniProt Q16539) (assay: p38 MAP kinase inhibitory activity (33P-ATP / myelin basic protein filter assay)). Details: @ 1 μM; read-out: percentage inhibition of the p38 activity.
Sequence of α p38 (Q16539 whole entry): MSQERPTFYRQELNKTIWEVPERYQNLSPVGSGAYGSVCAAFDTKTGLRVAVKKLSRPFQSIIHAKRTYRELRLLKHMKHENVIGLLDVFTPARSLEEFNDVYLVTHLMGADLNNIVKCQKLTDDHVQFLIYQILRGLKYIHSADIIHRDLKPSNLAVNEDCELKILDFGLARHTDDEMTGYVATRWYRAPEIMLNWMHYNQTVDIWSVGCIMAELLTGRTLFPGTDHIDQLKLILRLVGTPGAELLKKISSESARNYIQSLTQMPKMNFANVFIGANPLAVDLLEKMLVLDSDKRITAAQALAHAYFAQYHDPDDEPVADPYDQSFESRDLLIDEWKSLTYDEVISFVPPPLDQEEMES
Format: biochemical
Procedure: Compounds of the invention were tested for p38 MAP kinase inhibitory activity using the following protocol.
The reaction was allowed to proceed for fifty minutes before being stopped with an excess of ortho-phosphoric acid (30 μl at 2%). γ^33 P-ATP which remained unincorporated into the myelin basic protein was separated from phoshorylated MBP on a Mlipore (RTM) MAPH filter plate. The wells of the MAPH plate were wetted with 0.5% orthophosphoric acid, and then the results of the reaction were filtered with a Millipore vacuum filtration unit through the wells. Following filtration, the residue was washed twice with 200 μl of 0.5% orthophosphoric acid. Once the filters had dried, […] of Microscint 20™ scintillant was added, and then counted on a Packard Topcount™ counter for 30 seconds. The percentage inhibition of the p38 activity was calculated and plotted in order to determine the concentration of the test compound required to inhibit 50% of the p38 activity (IC50).
For O=C(Nc1ccc2[nH]cc(CCc3ccncc3)c2c1)c1ccc(N2CCCC2=O)cc1 [Example 26, 5-(4-(2-oxo-pyrrolidin-1-yl)benzamido)-3-(2-(4-pyridyl)ethyl)indole], the inhibition at 1 µM was 28%.

Same assay, conditions: @ 3 μM; read-out: percentage inhibition of the p38 activity
Compound O=C(Nc1ccc2c(CCc3ccncc3)c[nH]c2c1)c1cc(F)cc(N2CCOCC2)c1 [Example 15B, 6-(3-Fluoro-5-(4-morpholino)benzamido)-3-(2-(4-pyridyl)ethyl)indole] has an inhibition at 3 µM of 36%.

Same assay, conditions: @ 300 μM; read-out: percentage inhibition of the p38 activity
In the case of O=C1c2ccccc2C(=O)N1c1ccc2[nH]cc(CCc3ccncc3)c2c1 [Example 24B, 5-(1-Phthalimido)-3-(2-(4-pyridyl)ethyl)indole], the inhibition at 300 µM is reported as 25%.

Same assay, conditions: @ 1 mM; read-out: percentage inhibition of the p38 activity
Compound Nc1ccc2[nH]cc(CCc3ccncc3)c2c1 [Example 20A, 5-Amino-3-(2-(4-pyridyl)ethyl)indole] has an inhibition at 1000 µM of 23%.

Same assay, conditions: MKK6-activated α p38, MBP substrate, 50 min reaction
CC(C)(CO)Nc1nccc(CCc2c[nH]c3ccccc23)n1 [Example 28, 3-(2-(2-(3-Hydroxy-2-methyl-prop-2-ylamino)-4-pyrimidinyl)ethyl)indole] was tested, and the IC50 was 1.5 µM. c1ccc2c(c1)ccn2CCc1ccncc1 [Example 19, 1-(2-(4-pyridyl)ethyl)indole] gave an IC50 of 200 µM. Compound Clc1ccc2[nH]cc(CCc3ccncc3)c2c1 [Example 5, 5-Chloro-3-(2-(4-pyridyl)ethyl)indole] has an IC50 of 122 µM. In the case of Fc1cccc2[nH]cc(CCc3ccncc3)c12 [Example 11, 4-Fluoro-3-(2-(4-pyridyl)ethyl)indole], the IC50 is reported as 45 µM. For “3-(2-(4-Pyridyl)ethyl-7-azaindole [Example 12]”, the IC50 was 177 µM. OCCNc1nccc(CCc2c[nH]c3ccccc23)n1 [Example 27] gave an IC50 of 38 µM. With C[C@@H](Nc1nccc(CCc2c[nH]c3ccccc23)n1)c1ccccc1 [Example 30, 3-(2-(2-((R)-(+)-α-methylbenzylamino)-4-pyrimidinyl)ethyl)idole] the IC50 was 15 µM. Compound Nc1ccc2ccn(CCc3ccncc3)c2c1 [Example 25A, 6-Amino-1-(2-(4-pyridyl)ethyl)indole] has an IC50 of 475 µM. Cc1cccc2[nH]cc(CCc3ccncc3)c12 [Example 9, 4-Methyl-3-(2-(4-pyridyl)ethyl)indole] was tested, and the IC50 was 111 µM. CC(=O)Nc1ccc2[nH]cc(CCc3ccncc3)c2c1 [Example 7, 5-Acetamido-3-(2-(4-pyridyl)ethyl)indole] showed an IC50 of 650 µM. O=C(Nc1ccc2[nH]cc(CCc3ccncc3)c2c1)c1ccccc1 [Example 13B, 5-Benzamido-3-(2-(pyrid-4-yl)ethyl)indole] showed an IC50 of 40 µM. O=C(Nc1ccc2[nH]cc(CCc3ccncc3)c2c1)c1cccc(OC(F)(F)F)c1 [Example 16B, 5-(3-Trifluoromethoxybenzamido)-3-(2-(4-pyridy)ethyl)indole] showed an IC50 of 2 µM. In the case of Cc1[nH]c2ccccc2c1CCc1ccncc1 [Example 8, 2-Methyl-3-(2-(4-pyridyl)ethyl)indole], the IC50 is reported as 270 µM. Work on O=C(Nc1ccc2[nH]cc(CCc3ccncc3)c2c1)c1cccc(C(F)(F)F)c1 [Example 17B] yielded an IC50 of 4 µM. Work on c1ccc2c(CCc3ccncn3)c[nH]c2c1 [Example 31, 3-(2-(4-Pyrimidinyl)ethyl)indole] yielded an IC50 of 715 µM. Compound O=C(Nc1ccc2c(ccn2CCc2ccncc2)c1)c1cc(F)cc(N2CCOCC2)c1 [Example 18B, 5-(3-Fluoro-5-(4-morpholino)benzamido)-1-(2-(4-pyridyl)ethyl)indole] has an IC50 of 3 µM. Work on O=C(Nc1ccccc1)Nc1ccc2[nH]cc(CCc3ccncc3)c2c1 [Example 20B, 5-(Phenylcarbamoylamino)-3-(2-(4-pyridyl)ethyl)indole] yielded an IC50 of 28 µM. O=C(Nc1ccc2[nH]cc(CCc3ccncc3)c2c1)c1ccnc(N2CCOCC2)c1 [Example 23B, 5-(2-(4-Morpholino)isonicotinamido)-3-(2-(4-pyridyl)ethyl)indole] gave an IC50 of 1.3 µM. In the case of c1ccc2c(CCc3ccncc3)c[nH]c2c1 [Example 1, 3-(2-(4-Pyridyl)ethyl)indole], the IC50 is reported as 33 µM. O=[N+]([O-])c1ccc2[nH]cc(CCc3ccncc3)c2c1 [Example 6, 5-Nitro-3-(2-(4-pyridyl)ethyl)indole] was tested, and the IC50 was 300 µM. C[C@H](Nc1nccc(CCc2c[nH]c3ccccc23)n1)c1ccccc1 [Example 29, 3-(2-(2-((S)-(−)-α-methylbenzylamino)-4-pyrimidinyl)ethyl)indole] gave an IC50 of 3 µM. Work on Cn1cc(CCc2ccncc2)c2ccccc21 [Example 2, 1-Methyl-3-(2-(4-pyridyl)ethyl)indole] yielded an IC50 of 240 µM. Cc1ccc2[nH]cc(CCc3ccncc3)c2c1 [Example 4, 5-Methyl-3-(2-(4-pridyl)ethyl)indole] showed an IC50 of 250 µM. With c1ccc(CCc2c[nH]c3ccccc23)nc1 [Example 3, 3-(2-(2-Pyridyl)ethyl)indole] the IC50 was 820 µM. Clc1nccc(CCc2c[nH]c3ccccc23)n1 [Example 22, 3-(2-(2-Chloro-4-pyrimidinyl)ethyl)indole] showed an IC50 of 120 µM. In the case of Cc1cccc2c(CCc3ccncc3)c[nH]c12 [Example 10, 7-Methyl-3-(2-(4-pyridyl)ethyl)indole], the IC50 is reported as 35 µM.

Same assay, conditions: MKK6-activated α p38, MBP substrate; unit stated in cell
Cc1ccc(S(=O)(=O)n2cc(CCc3cccnc3)c3ccccc32)cc1 [Example 34, 1-[(4-Methylphenyl)sulphonyl]-3-(2-(3-pridyl)ethyl)indole] was tested, and the IC50 was greater than 1000 µM. With O=C(Nc1ccc2[nH]cc(CCc3ccncc3)c2c1)c1cc(F)cc(N2CCOCC2)c1 [Example 14B, 5-(3-Fluoro-5-(4-morpholino)benzamido)-3-(2-(4-pyridyl)ethyl)indole] the IC50 was 0.5 µM. Compound CC(C)(C)c1cc(NC(=O)Nc2ccc3[nH]cc(CCc4ccncc4)c3c2)n(-c2ccccc2)n1 [Example 32, 5-(3-tert-Butyl-1-phenylpyrazol-5-ylcarbamoylamino)-3-(2-(4-pyridyl)ethyl)indole] has an IC50 of 0.145 µM.
